From patent US20070142396A1, “Treatment of pain with 1-[3-[4-(3-chlorophenyl)-1-piperazinyl]propyl]-5-methoxy-3,4-dihydro-2(1H)-quinolone or salt thereof” (Vela Pharmaceuticals, Inc., priority 2005, published 2007)

Tests used:
[1] = tested on: rats with spinal nerve ligature (Chung neuropathic pain model); experiment: Chung neuropathic pain model, tactile stimulation, second experiment (Example 3); format: in vivo, rat; conditions: acute; for effect on force inducing paw withdrawal: p.o.
Description: For tactile stimulation, the animal was placed under an inverted Plexiglas® box (17×11×14 cm) on a grid floor. The tip of an electronic Von Frey probe (Bioseb, Model 1610, Chaville, France) was applied with increasing pressure to the non-lesioned hindpaw or the lesioned hindpaw. The force required to induce paw withdrawal was automatically recorded. This procedure was carried out three times for each paw, and the mean force per paw was calculated to provide basic scores per animal.
The rats used in this experiment were the same rats used in Example 2. The materials and methods for this experiment were identical to those for Example 2 with the following exceptions: there was a 1-week washout between the two experiments, and the rats weighed 290-403 g at the start of this experiment. Prior to receiving drug treatment, all animals were submitted to tactile stimulation and assigned to treatment groups matched on the basis of their pain response. No account was taken of the treatment administered during the first experiment in assigning animals to treatment groups for this experiment.
All of the substances were administered orally. Morphine, dissolved in distilled water, was administered at 128 mg/kg dose p.o. Rats were tested 30 minutes, 1 hour, 2 hours, and 4 hours after administration of the substances.

[2] = tested on: rats with L5 spinal nerve ligation (SNL model); experiment: Spinal nerve ligation (L5) neuropathic pain model, mechanical threshold with von Frey filaments (Example 4); format: in vivo, rat; conditions: 100 mg/kg oral
Excerpt: A total of 18 Sprague-Dawley (CD sub-strain) young adult (weight: 150-175 g) male rats were purchased from Harlan Sprague Dawley Company (Indianapolis, Ind.), Alabama colony. The rats were kept three per cage and had free access to food and water. Animals were kept in a room with a reversed light-dark cycle (light: 8:00 PM-8:00 AM) for 1 week before experimental manipulations. Ten rats were allocated to the present study. Eight rats were allocated to the study of Example 5, below.
The spinal nerve ligation (SNL) model of neuropathic pain was produced in all rats as described by Kim and Chung (Pain, 50, 355-363, 1992). Briefly, under gaseous anesthesia using halothane (3% for induction and 1.5% for maintenance) in oxygen, the left L5 spinal nerve was exposed by removing the paraspinal muscles and the transverse process of the L6 vertebra. The very proximal portion of the L5 spinal nerve was tightly ligated with 6-0 silk suture. The wounds were closed and anesthesia was discontinued. Rats were kept on a heated blanket until they had completely recovered from anesthesia.
OPC-14523 was dispersed in 0.5% tragacanth in distilled water at 20 mg/ml. It was administered as a oral injection in a dose of 100 mg/kg body weight. Gabapentin was prepared at 10 mg/ml in saline and was administered at 50 mg/kg body weight i.p. Gabapentin is a drug that was originally developed as an anticonvulsant but is now widely used as an analgesic for neuropathic pain (Abdi et al., Anesthesia & Analgesia 87:1360-1366 (1998)).
Ten rats were utilized in a Latin-square-design study comparing the activity of OPC-14523 and other compounds against neuropathic pain. Behavioral tests were conducted twice (1 day and 1 hour) before, as well as 1 and 4 days after, the neuropathic surgery. […] The ten rats were randomly divided into five groups of two rats each. […]
This procedure was repeated five times. […] The result was that all ten animals received each of the indicated five compounds in random order and then had mechanical thresholds determined at the indicated times.
Behavioral tests were conducted in a non-blind fashion. The foot withdrawal threshold to mechanical stimuli applied to the paw (mechanical threshold) was measured, as an indicator of mechanical sensitivity of the affected paw. The foot withdrawal threshold was measured using von Frey filaments. […] The mechanical thresholds were measured by using the “up-and-down” method (Chaplan et al., J. Neurosci. Methods 53(1):55-63, 1994), following the procedures described in previous studies (Park et al., Pain 87(2):171-179, 2000; Xie et al., J. Pain 2(5):270-278, 2001; Baik et al., J. Pain 4:212-221, 2003). […]

COc1cccc2c1CCC(=O)N2CCCN1CCN(c2cccc(Cl)c2)CC1 [OPC-14523, 1-[3-[4-(3-chlorophenyl)-1-piperazinyl]propyl]-5-methoxy-3,4-dihydro-2(1H)-quinolone]
change of force inducing paw withdrawal vs vehicle ([1]; 30 mg/kg p.o., lesioned paw, 30 minutes, p=0.10): +46%
change of force inducing paw withdrawal vs vehicle ([1]; 30 mg/kg p.o., lesioned paw, 2 hours, p=0.11): +79%
change of force inducing paw withdrawal vs vehicle ([1]; 100 mg/kg p.o., lesioned paw, 30 minutes, p=0.11): +76%
effect on force inducing paw withdrawal ([1]; lesioned paw): did not significantly affect
effect on force inducing paw withdrawal ([1]; non-lesioned paw): no clear effects
level of mechanical threshold reached relative to level prior to ligation [2]: comparable to the level observed prior to ligation
effect on mechanical threshold of the lesioned paw for foot withdrawals ([2]; 0.5-6 hours): significantly increased
